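Method: 48-hour compound exposure of cells in 96-well plates, five concentrations, linear interpolation of endpoints. GI50 is the concentration that inhibits growth by half.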 Active and inactive are the calls of the source. No stated cut-off is given here; in the data, active = GI50 up to about 1.1 µM and inactive = higher.
What was measured:
Assay in all cases: growth of human tumour cells (NCI), 48 h
DLD-1 = system: DLD-1
DMS-114 = system: DMS-114
DMS-273 = system: DMS-273
LXFL 529 = system: LXFL 529
RXF 631 = system: RXF 631
XF498 = system: XF498
HOP-18 = system: HOP-18
KM-20L2 = system: KM-20L2
M19-MEL = system: M19-MEL

Measured: GI50

COc1ccc2oc(-c3ccncc3)cc(=O)c2c1
inactive: DLD-1 > 100 µM | DMS-114 > 100 µM | DMS-273 62.8 µM | LXFL 529 > 100 µM | RXF 631 40.5 µM | XF498 > 100 µM

N#Cc1ccc(/C=C(/C(=O)c2ccccc2)c2ccccc2)cc1
inactive: DLD-1 6.58 µM | DMS-114 12.9 µM | DMS-273 4.82 µM | HOP-18 27.5 µM | KM-20L2 11.2 µM | LXFL 529 4.78 µM | M19-MEL 14 µM | RXF 631 11.1 µM | XF498 10.1 µM

O=C(NCCc1ccccc1)C1C(=O)C(=O)N(CCc2ccccc2)C1=O (stereo not given)
inactive: DLD-1 > 100 µM | DMS-273 > 100 µM | KM-20L2 > 100 µM | LXFL 529 > 100 µM | M19-MEL > 100 µM | RXF 631 > 100 µM | XF498 > 100 µM

NNC(=S)N/N=C(\CCCC(=O)NCCc1ccccc1)CC(=O)c1ccccc1
inactive: DLD-1 > 100 µM | DMS-114 > 100 µM | HOP-18 > 100 µM | KM-20L2 > 100 µM | LXFL 529 > 100 µM | M19-MEL > 100 µM

Cc1c(C(=O)C/C(=N/NC(=O)CC#N)C(N)=O)[n+]([O-])c2ccccc2[n+]1[O-]
inactive: DLD-1 29.1 µM | DMS-114 23.8 µM | DMS-273 42 µM | HOP-18 > 100 µM | KM-20L2 45.2 µM | LXFL 529 74.1 µM | M19-MEL 21.8 µM | RXF 631 87.3 µM | XF498 > 100 µM

O=C(c1cccs1)N(C(=S)N1CCN(c2ccccc2)CC1)C1CCCCC1
inactive: DLD-1 > 100 µM | DMS-114 58.2 µM | DMS-273 > 100 µM | HOP-18 > 100 µM | KM-20L2 > 100 µM | LXFL 529 > 100 µM | M19-MEL > 100 µM

O=C(O)CN1CCSc2ccccc2CN(CC(=O)O)CCSc2ccccc2C1
inactive: DLD-1 > 100 µM | DMS-273 > 100 µM | HOP-18 > 100 µM | KM-20L2 > 100 µM | LXFL 529 > 100 µM | M19-MEL > 100 µM

CC(=O)O[C@H]1CC[C@@]2(C)C(=CC[C@H]3C4=CC=C(C(C)=O)[C@@]4(C)CCC32)C1 (stereo not given in full)
inactive: DLD-1 37.8 µM | DMS-273 28.2 µM | HOP-18 > 100 µM | KM-20L2 44.1 µM | LXFL 529 30.5 µM | M19-MEL 36.3 µM

CC(=O)Nc1cccc(/N=N/N(C)C)c1
inactive: DLD-1 > 31.6 µM | DMS-114 > 100 µM | DMS-273 > 100 µM | HOP-18 > 100 µM | KM-20L2 > 100 µM | M19-MEL > 100 µM | XF498 > 100 µM

OCC(O)COc1ccc(F)cc1 (stereo not given)
inactive: DLD-1 > 100 µM | DMS-114 > 100 µM | DMS-273 > 100 µM | HOP-18 > 100 µM | KM-20L2 > 100 µM | LXFL 529 > 100 µM | M19-MEL > 100 µM | XF498 > 100 µM

C/C=C/C(=O)Oc1cccc2cccnc12
inactive: DLD-1 4.5 µM | DMS-114 4.22 µM | DMS-273 14.6 µM | HOP-18 24.5 µM | KM-20L2 8.07 µM | LXFL 529 4.21 µM | M19-MEL 12.5 µM | XF498 8.41 µM

COc1cccc(NC(=O)CC(=O)N2N=C(N(CCC#N)c3ccccc3C)CC2c2ccccc2)c1 (stereo not given)
inactive: DLD-1 > 100 µM | DMS-114 > 100 µM | DMS-273 > 100 µM | HOP-18 > 100 µM | KM-20L2 > 100 µM | LXFL 529 > 100 µM | M19-MEL > 100 µM | RXF 631 > 100 µM

COc1ccc(OC(C)C(=O)O)c2c(=O)ccccc12 (stereo not given)
inactive: DLD-1 > 100 µM | DMS-114 > 100 µM | DMS-273 > 100 µM | KM-20L2 > 100 µM | LXFL 529 > 100 µM | M19-MEL > 100 µM | RXF 631 > 100 µM | XF498 > 100 µM
